Several values for one entry are separate records, joined by “and”; a condition that tells them apart may be missing. Equal values may be shown once. Entries after “also recorded” stand apart in the source; their conditions may differ. Read-outs that look alike come from different tables or passages of the source.
Experiments:
[1] = test system: normal human keratinocyte; assay: ATP viability assay in keratinocytes; format: cell-based; details: any concentration tested
Experimental: Experimental Design. Nontransformed normal human keratinocyte cell cultures were established under normoxic conditions (21% oxygen). […] At the completion of treatment, cells were assessed for viability with an ATP assay and conditioned media were evaluated for VEGF protein levels by ELISA (as described in Section 9.1.1.1).

[2] = Trough plasma concentrations of Compound #10 in HT1080 xenograft mice (HPLC-MS/MS); format: in vivo; details: athymic nude, mouse, oral, 1 mg/kg BID
[3] = 14C-Compound #10 tissue distribution by quantitative whole-body autoradiography (Tables 23, 33); format: in vivo; details: rats, single oral 50 mg/kg
Experimental: For the QWBA, the carcasses were prepared by immediately freezing them, embedding them in chilled carboxymethylcellulose, and freezing them into blocks. Appropriate cryomicrotome sections of the blocks at 40 μm thickness were collected on adhesive tape. Mounted sections were tightly wrapped and exposed on phosphorimaging screens along with plastic embedded autoradiographic standards. Exposed screens were scanned and the autoradiographic standard image data were sampled to create a calibrated standard curve. Specified tissues, organs, and fluids were analyzed.

HT1080 cells [4] = assay: Cell cycle analysis by propidium iodide flow cytometry in HT1080 cells (percent cells in S-phase, Table 24); format: cell-based, human; details: HT1080, normoxic, 18 hours
Experimental: Experimental Design. […] After treatment, cells were trypsinized, and stained with propidium iodide (PI) dye to measure DNA content of individual cells by flow cytometry. Output comprised histograms showing relative DNA content in 10,000 cells.
While compounds which cause greater than 20% of the cells to accumulate in S-phase at 100 nM are considered active, a larger percentage of cells may be accumulated in S-phase at lower doses depending on the Compound, as shown in FIG. 12 for example.

HT1080 cells [5] = assay: Kinetics of S-phase transit by BrdU incorporation in HT1080 cells; format: cell-based, human
Experimental: Experimental Design. HT 1080 cells are exposed to BrdU (bromodeoxyuridine, a synthetic nucleoside that is an analogue of thymidine and is incorporated into DNA during the S phase of cell division) (FITC BrdU Flow Kit, BD Pharmingen catalog #552598). Cells are grown and treated as described in Section 9.3.1.3 above with the exception that one hour prior to harvesting by trypsinization, BrdU (final concentration 1 μM) is added to each culture for 1 hour. Cells actively replicating DNA during this brief time incorporate the BrdU into the DNA, which can then be quantitated. BrdU content is quantitated with using the FITC BrdU Flow Kit as instructed by the manufacturer. The process includes fixation (paraformaldehyde) and DNA staining with 7-AAD (7-amino-actinomycin D) followed by incubation with a fluoro-tagged anti-BrdU antibody that specifically recognizes BrdU incorporated into DNA. Dual channel FACS analysis permits assessment of both the DNA content of individual cells and the rate of transit across the S-phase, which is assessed based upon BrdU incorporation over the one hour treatment period.

[6] = molecular target: human-ether-a-go-go-related gene (hERG) current (Homo sapiens, UniProt Q12809); assay: Higher throughput hERG assay; format: cell-based
Sequence of human-ether-a-go-go-related gene (hERG) current (Q12809 whole entry): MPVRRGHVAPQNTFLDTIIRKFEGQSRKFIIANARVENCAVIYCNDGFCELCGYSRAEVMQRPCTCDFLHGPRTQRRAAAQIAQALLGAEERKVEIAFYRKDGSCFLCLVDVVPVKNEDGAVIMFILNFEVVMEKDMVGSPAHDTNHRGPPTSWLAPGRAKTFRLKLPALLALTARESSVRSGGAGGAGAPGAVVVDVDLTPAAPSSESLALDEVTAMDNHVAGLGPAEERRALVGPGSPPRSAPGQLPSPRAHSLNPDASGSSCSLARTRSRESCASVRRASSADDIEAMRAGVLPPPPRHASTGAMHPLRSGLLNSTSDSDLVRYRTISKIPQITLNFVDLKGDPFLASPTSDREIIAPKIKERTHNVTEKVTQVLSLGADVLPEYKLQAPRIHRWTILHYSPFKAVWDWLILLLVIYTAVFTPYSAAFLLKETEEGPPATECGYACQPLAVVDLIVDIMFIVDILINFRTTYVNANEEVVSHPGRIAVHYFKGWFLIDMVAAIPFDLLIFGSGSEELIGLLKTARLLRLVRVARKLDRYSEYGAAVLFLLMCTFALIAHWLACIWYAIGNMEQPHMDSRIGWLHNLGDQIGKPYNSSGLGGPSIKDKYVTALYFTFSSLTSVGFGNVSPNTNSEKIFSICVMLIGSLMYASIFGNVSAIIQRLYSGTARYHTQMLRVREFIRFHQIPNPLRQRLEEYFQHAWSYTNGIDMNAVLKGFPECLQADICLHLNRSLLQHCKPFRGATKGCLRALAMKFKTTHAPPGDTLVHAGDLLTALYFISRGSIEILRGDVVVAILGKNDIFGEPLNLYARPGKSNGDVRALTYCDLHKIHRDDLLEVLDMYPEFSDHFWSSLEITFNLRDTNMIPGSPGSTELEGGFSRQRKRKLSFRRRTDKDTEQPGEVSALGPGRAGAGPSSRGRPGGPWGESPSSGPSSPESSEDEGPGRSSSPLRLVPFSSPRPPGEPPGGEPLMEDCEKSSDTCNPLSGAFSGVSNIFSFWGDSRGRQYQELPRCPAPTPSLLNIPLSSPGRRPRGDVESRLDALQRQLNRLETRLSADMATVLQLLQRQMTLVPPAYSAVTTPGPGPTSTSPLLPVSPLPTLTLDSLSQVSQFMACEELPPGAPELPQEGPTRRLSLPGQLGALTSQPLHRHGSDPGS

[7] = Oral pharmacokinetics / toxicokinetics in rats; format: in vivo, Sprague Dawley rats
Experimental: The pharmacokinetic evaluations in mice were adjuncts to the primary pharmacodynamic xenograft studies. The evaluations in rats included toxicokinetic assessments in single-dose, 7-day, and 28-day toxicology studies as well as a mass-balance study after a single oral dose of ^14C-Compound #10. The evaluations in dogs included toxicokinetic assessments in 7-day and 28-day toxicology studies. In the studies performed, rodents were dosed once daily with Compound #10 formulated in vehicle and administered via oral gavage.

CYP2D6 = molecular target: T1, CYP2D6 (Homo sapiens, UniProt P10635); assay: CYP inhibition in human hepatic microsomes / recombinant isoenzymes: CYP2D6; format: in vitro ADME; details: human hepatic microsomes or recombinant isoenzymes
T1 construct: host or cells: human hepatic microsomes or recombinant isoenzyme (not distinguished)
T1 sequence (P10635 whole entry): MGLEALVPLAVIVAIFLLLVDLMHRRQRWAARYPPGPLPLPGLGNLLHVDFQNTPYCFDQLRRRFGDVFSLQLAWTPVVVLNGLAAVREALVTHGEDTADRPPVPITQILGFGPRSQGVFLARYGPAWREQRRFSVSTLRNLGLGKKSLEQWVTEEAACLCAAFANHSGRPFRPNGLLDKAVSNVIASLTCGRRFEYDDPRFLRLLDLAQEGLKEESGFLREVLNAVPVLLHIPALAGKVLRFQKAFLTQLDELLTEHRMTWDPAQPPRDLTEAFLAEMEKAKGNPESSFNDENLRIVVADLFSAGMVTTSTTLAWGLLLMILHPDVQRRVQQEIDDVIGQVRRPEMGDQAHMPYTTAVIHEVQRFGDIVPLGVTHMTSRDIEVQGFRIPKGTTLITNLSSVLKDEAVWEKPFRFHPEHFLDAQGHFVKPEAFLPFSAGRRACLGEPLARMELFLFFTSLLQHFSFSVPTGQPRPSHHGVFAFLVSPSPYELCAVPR
Source text: It is possible that in certain clinical trial subjects, such agents may need to be adjusted for dosing or replaced by alternative agents that are not metabolized by CYP2D6, particularly when such agents may have a low therapeutic index.

[8] = 28-day oral toxicity study in rats (14-day recovery); format: in vivo
Experimental: A battery of genotoxicity studies was also performed. […] The L23 vehicle was used.
Exposures were maximal at 120 mg/kg/day.

physiological VEGF-A = assay: Phase 1 multiple-dose study: plasma and serum physiological VEGF-A concentrations; format: in vivo, human; details: healthy volunteers, all doses tested
Source text: Plasma VEGF Concentrations: Plasma and serum VEGF concentrations and concentration changes from baseline were presented descriptively.

VEGF-A = assay: Patients: serum and plasma VEGF-A levels; format: in vivo, human
Experimental: Subjects with NF2 may receive continuous daily treatment with a Compound administered at 100 mg per dose, 2 times a day (BID) for up to 1 year, or longer as appropriate, or until tumor progression. […] Tumor shrinkage or an improvement in hearing are indicators of efficacy.
Anti-angiogenic activity: Assessing VEGF concentrations provides a relevant and convenient mechanism-specific marker of Compound activity. […] For example, clinically validated ELISA kits (e.g., from R&D Systems, Minneapolis, Minn.) may be used to measure concentrations of VEGF, VEGF-C, P1GF, VEGFR, and inflammatory mediators such as IL-6 and IL-8. CT scan and MRI scan may also be used to assess peritumoral inflammation or edema.
Blood for VEGF, VEGFR, and Cytokines. Two blood samples (1 for plasma and 1 for serum) may be obtained for assessment of VEGF, VEGFR, and cytokine levels.
Each sample for plasma collection may comprise 3 mL of venous blood drawn into a […]® tube with K2EDTA as the anticoagulant. Immediately after collection, the tube may be gently inverted 8 to 10 times to mix the anticoagulant with the blood sample. The tube may be stored upright at room temperature until centrifugation; centrifugation and sample processing may be performed within 30 minutes of sample collection. […]

COc1ccc(C2c3[nH]c4ccc(Cl)cc4c3CCN2C(=O)Oc2ccc(Cl)cc2)cc1 (racemic) [Compound #10]
Toxicity (ATP viability) [1]: No toxicity was observed
concentration at 16 h ([2]; 16 hours after the first day of dosing (n=3), read-out: Mean trough plasma concentration): 130 ng/mL and 280 nM
concentration at 16 h ([2]; 16 hours after the last dose on Day 18 (n=4), read-out: Steady state mean trough plasma concentration): 820 ng/mL
Tmax of radioactivity in blood and plasma ([3]; both sexes): 4 hours postdose
Blood-brain barrier penetration [3]: penetrates the blood-brain barrier
Overt signs of toxicity [3]: no overt signs of toxicity
Concentration from which accumulation of cells in S phase is observed (HT1080 cells [4]): ≥ 1 nM
Effect on cell cycle distribution (FIG. 12, FIG. 24) (HT1080 cells [4]; Compound #10 0.3-100 nM, Compound 1205 10 nM): induced a redistribution of the cycling characteristics
Percentage of cells residing in S-phase (HT1080 cells [5]; HT1080, 18-hour treatment, increasing doses): net increase
BrdU incorporation of individual cells vs DMSO control (HT1080 cells [5]; HT1080, one-hour BrdU pulse after 18-hour treatment): incorporated less BrdU
Inhibition of hERG current [6]: negative for meaningful inhibition
Oral bioavailability [7]: orally bioavailable
Inhibition of CYP2D6 isoenzyme activity (CYP2D6): inhibits the activity
NOAEL for 28-days [8]: 12 mg/kg/day
Dose of maximal exposures ([8]; 28-day oral gavage): 120 mg/kg/day
Adrenal weights ([8]; 28-day, all dose levels): Increased
Effect on plasma or serum physiological VEGF-A concentrations (physiological VEGF-A): no clear dose dependent effects; also recorded: No significant alterations
Plasma VEGF-A levels in patients (FIG. 35) (VEGF-A): reduced
Serum VEGF-A levels in patients (FIG. 34) (VEGF-A): reduced

From patent US20120157401A1, “METHODS FOR TREATING NEUROFIBROMATOSIS” (PTC Therapeutics, Inc., priority 2009, published 2012)
